Source: patent publication US11541028B2, “Peptide pharmaceuticals for treatment of NASH and other disorders” (Mederis Diabetes LLC, priority 2018, dated 2023)
pEC50: −log10 of the molar value.

What was measured:
db/db mice = assay: Glucose-lowering activity in db/db mice; type: in vivo; conditions: for time for which elevated blood glucose level was reduced to the normal range: 250 nmol/kg subcutaneously at t=0 and 7 hr (FIG. 9)
Description: The 60 female db/db B6BKS (D) Leprdb/J (strain 000697) mice for this study were about 8-9 weeks old at arrival (Jackson Laboratory, Bar Harbor, Me.). […] One group of 8 female mice served as the vehicle control and received the vehicle, 0.2% BSA in saline, pH 7.4. One additional group of 8 female mice received the positive-control compound, liraglutide, at a dose level of 50 nmoles/kg. The test compounds, vehicle and positive-control compound were subcutaneously injected at a dose volume of 6 mL/kg on day 1 at about 0, 7 and 24 hours.
Clinical observations were conducted at receipt, prior to randomization, and daily from days 1 to 5. Body weights were measured and recorded at receipt, prior to randomization, and daily from days 1 to 5. Food consumption was measured and recorded daily from days 1 to 5. Blood samples for glucose analysis were collected pre-study (day −3) and at 0, 1, 2, 4, 8, 10, 24, 48, 72 and 96 hours following the first dose on day 1. At study termination all animals were euthanized, and the carcasses were discarded without further evaluation.

human GLP-1 receptor = molecular target: T1, human GLP-1 receptor (Homo sapiens, UniProt P43220); assay: DiscoveRx LeadHunter cellular assay, cAMP stimulation, GLP-1 receptor in CHO cells; type: cell-based; conditions: human GLP-1 receptor in CHO cells (DiscoveRx); read-out: EC50 cAMP GLP-1 R
T1 construct: host or cells: CHO cells
T1 sequence (P43220 24-463): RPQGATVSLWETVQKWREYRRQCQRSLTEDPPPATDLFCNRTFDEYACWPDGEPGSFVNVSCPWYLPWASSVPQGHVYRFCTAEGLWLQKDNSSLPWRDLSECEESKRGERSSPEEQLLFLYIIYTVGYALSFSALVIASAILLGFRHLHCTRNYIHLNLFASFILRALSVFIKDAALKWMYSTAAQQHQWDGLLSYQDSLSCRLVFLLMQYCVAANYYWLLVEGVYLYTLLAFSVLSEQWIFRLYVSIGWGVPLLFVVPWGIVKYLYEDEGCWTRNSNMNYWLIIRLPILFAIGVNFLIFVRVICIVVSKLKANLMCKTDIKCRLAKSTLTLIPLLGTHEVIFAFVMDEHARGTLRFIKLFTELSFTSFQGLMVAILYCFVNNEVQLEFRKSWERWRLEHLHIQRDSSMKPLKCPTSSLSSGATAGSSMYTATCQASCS
Description: (§1) A further series of cellular assays was carried out with standard cellular assays (DiscoveRx, LeadHunter assays) using readout of cAMP stimulation or arrestin activation. Compounds were weighed precisely in an amount of about 1 mg and shipped to DiscoveRx for dilution and assay.

human glucagon receptor = molecular target: T2, human glucagon receptor (Homo sapiens, UniProt P47871); assay: DiscoveRx LeadHunter cellular assay, cAMP stimulation, glucagon receptor in CHO cells; type: cell-based
T2 construct: host or cells: CHO cells
T2 sequence (P47871 26-477): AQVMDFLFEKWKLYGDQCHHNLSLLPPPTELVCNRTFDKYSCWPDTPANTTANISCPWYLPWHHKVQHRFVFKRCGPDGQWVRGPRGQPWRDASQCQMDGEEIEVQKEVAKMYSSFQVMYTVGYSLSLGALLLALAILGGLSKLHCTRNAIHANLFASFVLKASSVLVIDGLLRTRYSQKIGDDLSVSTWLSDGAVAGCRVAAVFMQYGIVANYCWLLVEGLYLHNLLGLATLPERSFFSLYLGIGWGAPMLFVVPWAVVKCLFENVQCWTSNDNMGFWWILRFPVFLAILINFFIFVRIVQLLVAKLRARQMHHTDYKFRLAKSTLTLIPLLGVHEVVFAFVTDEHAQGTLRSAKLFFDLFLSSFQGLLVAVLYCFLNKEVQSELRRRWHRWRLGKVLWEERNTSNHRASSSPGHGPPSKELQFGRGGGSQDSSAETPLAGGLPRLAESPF
Description: as §1

[1] = db/db mice, high-dose (300 nmoles/kg) sc at 0, 7 and 24 hours, days 2 and 3

| Structure (SMILES) | body weight changes versus vehicle (db/db mice; [1]) | glucose levels versus vehicle (db/db mice; db/db mice, high-dose (300 nmoles/kg), at 10 and 24 hr) | food consumption versus liraglutide (db/db mice; db/db mice, high-dose (300 nmoles/kg), day 1) | db/db Mice-Mean Blood Glucose (mg/dL) 0 hr (db/db mice; dose 300 nmole/kg sc) [mg/dL] | db/db Mice-Mean Blood Glucose (mg/dL) 10 hr (db/db mice; dose 300 nmole/kg sc) [mg/dL] | db/db Mice-Mean Blood Glucose (mg/dL) 24 hr (db/db mice; dose 300 nmole/kg sc) [mg/dL] | db/db Mice-Mean Blood Glucose (mg/dL) 48 hr (db/db mice; dose 300 nmole/kg sc) [mg/dL] | db/db Mice-Mean Blood Glucose (mg/dL) 0 hr (db/db mice; dose 250 nmole/kg sc) [mg/dL] | db/db Mice-Mean Blood Glucose (mg/dL) 10 hr (db/db mice; dose 250 nmole/kg sc) [mg/dL] | db/db Mice-Mean Blood Glucose (mg/dL) 24 hr (db/db mice; dose 250 nmole/kg sc) [mg/dL] | db/db Mice-Mean Blood Glucose (mg/dL) 48 hr (db/db mice; dose 250 nmole/kg sc) [mg/dL] | time for which elevated blood glucose level was reduced to the normal range (db/db mice; db/db mice) | pEC50 (human GLP-1 receptor) | food consumption versus liraglutide (db/db mice; db/db mice, high-dose (300 nmoles/kg), day 2) | body weight changes versus vehicle (db/db mice; db/db mice, low-dose (100 nmoles/kg) sc at 0, 7 and 24 hours, days 3 and 4) | food consumption versus liraglutide (db/db mice; db/db mice, low-dose (100 nmoles/kg), day 2) | pEC50 (human glucagon receptor) |
| --- | --- | --- | --- | --- | --- | --- | --- | --- | --- | --- | --- | --- | --- | --- | --- | --- | --- |
| CCCCCCCCCCCCCCO[C@@H]1O[C@H](C(=O)NCCCC[C@H](NC(=O)[C@@H](NC(=O)[C@H](Cc2ccccc2)NC(=O)[C@H](CCC(=O)O)NC(=O)[C@@H]2CCCCNC(=O)CC[C@H](NC(=O)[C@H](CC(=O)O)NC(=O)[C@H](CC(C)C)NC(=O)[C@H](Cc3ccc(O)cc3)NC(=O)[C@H](CCCCN)NC(=O)[C@H](CO)NC(=O)[C@H](Cc3ccc(O)cc3)NC(=O)[C@H](CC(=O)O)NC(=O)[C@H](CO)NC(=O)[C@@H](NC(=O)[C@H](Cc3ccccc3)NC(=O)[C@@H](NC(=O)CNC(=O)[C@H](CCC(N)=O)NC(=O)C(C)(C)NC(=O)[C@@H](N)Cc3c[nH]cn3)[C@@H](C)O)[C@@H](C)O)C(=O)N[C@@H](CCC(N)=O)C(=O)N[C@@H](C)C(=O)N[C@@H](C)C(=O)N2)[C@@H](C)CC)C(=O)N[C@@H](Cc2c[nH]c3ccccc23)C(=O)N[C@@H](CC(C)C)C(=O)N[C@@H](CC(C)C)C(=O)N[C@@H](CCC(N)=O)C(=O)N[C@H](C(N)=O)[C@@H](C)O)[C@@H](O)[C@H](O)[C@H]1O [EU-A994] | Significant body weight changes versus vehicle | significantly different from vehicle | significantly different from liraglutide | 554 | 242 | 209 | 385 | – | – | – | – | – | – | – | – | – | – |
| CCCCCCCCCCCCO[C@@H]1O[C@H](C(=O)NCCCC[C@H](NC(=O)[C@@H](NC(=O)[C@H](Cc2ccccc2)NC(=O)[C@H](CCC(=O)O)NC(=O)[C@@H]2CCCCNC(=O)CC[C@H](NC(=O)[C@H](CC(=O)O)NC(=O)[C@H](CC(C)C)NC(=O)[C@H](Cc3ccc(O)cc3)NC(=O)[C@H](CCCCN)NC(=O)[C@H](CO)NC(=O)[C@H](Cc3ccc(O)cc3)NC(=O)[C@H](CC(=O)O)NC(=O)[C@H](CO)NC(=O)[C@@H](NC(=O)[C@H](Cc3ccccc3)NC(=O)[C@@H](NC(=O)CNC(=O)[C@H](CCC(N)=O)NC(=O)C(C)(C)NC(=O)[C@@H](N)Cc3c[nH]cn3)[C@@H](C)O)[C@@H](C)O)C(=O)N[C@@H](CCC(N)=O)C(=O)N[C@@H](C)C(=O)N[C@@H](C)C(=O)N2)[C@@H](C)CC)C(=O)N[C@@H](Cc2c[nH]c3ccccc23)C(=O)N[C@@H](CC(C)C)C(=O)N[C@@H](CC(C)C)C(=O)N[C@@H](CCC(N)=O)C(=O)N[C@H](C(N)=O)[C@@H](C)O)[C@@H](O)[C@H](O)[C@H]1O [EU-A993] | – | – | – | – | – | – | – | 503 | 305 | 324 | 426 | – | – | – | – | – | – |
| CCCCCCCCO[C@@H]1O[C@H](C(=O)NCCCC[C@H](NC(=O)[C@@H](NC(=O)[C@H](Cc2ccccc2)NC(=O)[C@H](CCC(=O)O)NC(=O)[C@@H]2CCCCNC(=O)CC[C@H](NC(=O)[C@H](CC(=O)O)NC(=O)[C@H](CC(C)C)NC(=O)[C@H](Cc3ccc(O)cc3)NC(=O)[C@H](CCCCN)NC(=O)[C@H](CO)NC(=O)[C@H](Cc3ccc(O)cc3)NC(=O)[C@H](CC(=O)O)NC(=O)[C@H](CO)NC(=O)[C@@H](NC(=O)[C@H](Cc3ccccc3)NC(=O)[C@@H](NC(=O)CNC(=O)[C@H](CCC(N)=O)NC(=O)C(C)(C)NC(=O)[C@@H](N)Cc3c[nH]cn3)[C@@H](C)O)[C@@H](C)O)C(=O)N[C@@H](CCC(N)=O)C(=O)N[C@@H](C)C(=O)N[C@@H](C)C(=O)N2)[C@@H](C)CC)C(=O)N[C@@H](Cc2c[nH]c3ccccc23)C(=O)N[C@@H](CC(C)C)C(=O)N[C@@H](CC(C)C)C(=O)N[C@@H](CCC(N)=O)C(=O)N[C@H](C(N)=O)[C@@H](C)O)[C@@H](O)[C@H](O)[C@H]1O [EU-A992] | – | – | – | – | – | – | – | 405 | 104 | 112 | 130 | around 72 hr | – | – | – | – | – |
| CCCCCCCCCCCO[C@@H]1O[C@H](C(=O)NCCCC[C@H](NC(=O)[C@@H](NC(=O)[C@H](Cc2ccccc2)NC(=O)[C@H](CCC(=O)O)NC(=O)[C@@H]2CCCCNC(=O)CC[C@H](NC(=O)[C@H](CC(=O)O)NC(=O)[C@H](CC(C)C)NC(=O)[C@H](Cc3ccc(O)cc3)NC(=O)[C@H](CCCCN)NC(=O)[C@H](CO)NC(=O)[C@H](Cc3ccc(O)cc3)NC(=O)[C@H](CC(=O)O)NC(=O)[C@H](CO)NC(=O)[C@@H](NC(=O)[C@H](Cc3ccccc3)NC(=O)[C@@H](NC(=O)CNC(=O)[C@H](CCC(N)=O)NC(=O)C(C)(C)NC(=O)[C@@H](N)Cc3c[nH]cn3)[C@@H](C)O)[C@@H](C)O)C(=O)N[C@@H](CCC(N)=O)C(=O)N[C@@H](C)C(=O)N[C@@H](C)C(=O)N2)[C@@H](C)CC)C(=O)N[C@@H](Cc2c[nH]c3ccccc23)C(=O)N[C@@H](CC(C)C)C(=O)N[C@@H](CC(C)C)C(=O)N[C@@H](CCC(N)=O)C(=O)N[C@H](C(N)=O)[C@@H](C)O)[C@@H](O)[C@H](O)[C@H]1O [EU-A1168] | – | – | – | – | – | – | – | 380 | 133 | 169 | 164 | around 72 hr | – | – | – | – | – |
| CCCCCCCCCCCCCCCCCCO[C@@H]1O[C@H](CO[C@H]2O[C@H](C(=O)NCCCC[C@H](NC(=O)[C@@H](NC(=O)[C@H](Cc3ccccc3)NC(=O)[C@H](CCC(=O)O)NC(=O)[C@@H]3CCCCNC(=O)CC[C@H](NC(=O)[C@H](CC(=O)O)NC(=O)[C@H](CC(C)C)NC(=O)[C@H](Cc4ccc(O)cc4)NC(=O)[C@H](CCCCN)NC(=O)[C@H](CO)NC(=O)[C@H](Cc4ccc(O)cc4)NC(=O)[C@H](CC(=O)O)NC(=O)[C@H](CO)NC(=O)[C@@H](NC(=O)[C@H](Cc4ccccc4)NC(=O)[C@@H](NC(=O)CNC(=O)[C@H](CCC(N)=O)NC(=O)C(C)(C)NC(=O)[C@@H](N)Cc4c[nH]cn4)[C@@H](C)O)[C@@H](C)O)C(=O)N[C@@H](CCC(N)=O)C(=O)N[C@@H](C)C(=O)N[C@@H](C)C(=O)N3)[C@@H](C)CC)C(=O)N[C@@H](Cc3c[nH]c4ccccc34)C(=O)N[C@@H](CC(C)C)C(=O)N[C@@H](CC(C)C)C(=O)N[C@@H](CCC(N)=O)C(=O)N[C@H](C(N)=O)[C@@H](C)O)[C@H](O)[C@H](O)[C@H]2O)[C@@H](O)[C@H](O)[C@H]1O [EU-A1026] | Significant body weight changes versus vehicle | – | – | 531 | 399 | 438 | 505 | – | – | – | – | – | 10.47 | significantly different from liraglutide | Significant body weight changes versus vehicle | significantly different from liraglutide | 9.31 |
